Experimental data reported in article PMC8245078, “Development of novel benzofuran-isatin conjugates as potential antiproliferative agents with apoptosis inducing mechanism in Colon cancer” (Journal of Enzyme Inhibition and Medicinal Chemistry, 2021).

Tests used:
Type in all cases: cell-based, human
[1] = test system: HT-29 colorectal cancer cell line; experiment: MTT cell viability assay; conditions: for inhibition of HT-29 cancer cells viability: 10 µM, 24 h, MTT
Method: In the present investigation a new set of benzofuran–isatin hybrids (5a–e and 7a–i) was synthesised to be evaluated for their potential anticancer activity towards two human colorectal cancer cell lines, SW-620 and HT-29. […] Both, SW-620 and HT-29 cells were treated with 10 µM of each compound for 24 h and the percent cell viability was calculated using MTT assay.
For this reason, compounds 5a and 5d were pursued for further studies. Starting with determination of IC50s and cytotoxic selectivity studies. Serial concentrations of compounds 5a and 5d were used to examine their impact on cell viability using MTT protocol. Results of concentration vs percent viability were charted, and the IC50 was calculated for SW-620 and HT-29 cell lines using Graph Pad prism 8 (Figure 4). […]
[(Ti-Tz)/Tz] x 100 for concentrations for which Ti<Tz […]
SW620 and HT29 colorectal cancer cell lines and HFF-1 fibroblast (ATCC, Rockville, USA) were used. HT29 cells were cultured and maintained in Dulbecco’s Modified Eagles Medium (DMEM) (GIBCO, by Thermo Fischer Scientific, NY, USA) supplemented with 10% fetal bovine serum (FBS), 100 units/mL penicillin, and 100 μg streptomycin. SW620 and HFF-1 cells were cultured in Roswell Park Memorial Institute medium (RPMI-1640) (GIBCO, by Thermo scientific, NY, USA) supplemented with 10% FBS and 1% penicillin and streptomycin (Napolitano et al., 2015). All cultures were incubated at 37 °C and humidified atmosphere of 5% […]
2.3. Cell Viability Assay
The cytotoxicity effect of compounds on the colorectal cancer cell lines, SW620 and HT29 in addition to the normal human fibroblasts was measured by MTT (3-(4, 5-dimethylthiazol-2-yl)-2,5-diphenyltetrazolium bromide) (Sigma-Aldrich, St. Louis, MO, USA) as previously described. Briefly, cells were seeded in 96 well culture plates at 5000/well for HT29 and 10,000/well for SW620 for 24 h. Cells were then incubated with different compounds from WAG1 series (1-15) 24h at 37 °C and humidified 5% CO2 incubator. Freshly prepared 10 μl of 3-(4,5-dimethylthiazol-2-yl)-2,5-diphenyltetrazolium bromide (MTT 5 mM) solution were added to the cells and further incubated for 2 h. Thereafter, 100 μl of dimethyl sulfoxide (DMSO) were added in each well and the crystals were dissolved through careful pipetting. […]
VA, USA). The experiments were performed in triplicate for each condition. […]
The total protein concentration was evaluated by the colorimetric
Bradford protein assay (BIO-RAD inc, CA, USA) at 595 nm absorbance. Lysates were loaded in […]

[2] = test system: anti-apoptotic Bcl2 protein in SW-620 cells; experiment: Western blot analysis of Bcl2; conditions: SW-620, 5 μM and 10 μM, 24 h
Description: (§1) To further examine the possible mechanism of apoptosis, the effect of compounds 5a and 5d on certain apoptosis-related proteins was studied. Bcl2 protein as a critical component of the mitochondrial apoptotic pathway is reported to be overexpressed in numerous tumours causing survival of cancer cell[62]. In addition, it was reported that caspase activation during apoptosis leads to proteolytic cleavage of several cellular substrates participating in DNA reparation including [poly (ADP-ribose) polymerase][63]. Therefore, the impact of compounds 5a and 5d on the anti-apoptotic protein Bcl2 and the level of cleaved PARP was examined (Figure 7). […]
(§2) 2.5. Western Blot Analysis
(§3) All cells were seeded in a 100 mm dish (1 × 10^6 cells per dish) in 5% CO2 at 37 °C in the appropriate culture medium. The cells with around 50% confluency were treated with compounds for 24h. At the experiment day, cells were washed with 1x PBS, harvested and lysed in RIPA lysis buffer, combined with protease inhibitors, (Sigma-Aldrich, St. Louis, MO, USA) as described previously (39)). The total protein concentration was evaluated by the colorimetric Bradford protein assay (BIO-RAD inc, CA, USA) at 595 nm absorbance. Lysates were loaded in […]
(§4) equal concentration and separated by sodium dodecyl sulfate-polyacrylamide gel electrophoresis (SDS-PAGE) and then transferred to a nitrocellulose membrane by semi-dry. […]

[3] = test system: cleaved PARP in SW-620 cells; experiment: Western blot analysis of cleaved PARP; conditions: SW-620, 5 μM and 10 μM, 24 h
Description: as §1, §2, §3, §4

[4] = Homo sapiens, HT-29, HT-29, MTT

SMILES	inhibition of HT-29 cancer cells viability [1] [%]	IC50 ([1]; HT-29, MTT) [µM]	IC50 [1, 4] [µM]	Bcl2 protein expression (Western blot, in words) [2]	level of cleaved PARP (Western blot, in words) [3]
Cc1c(C(=O)N/N=C2\C(=O)Nc3ccccc32)oc2ccccc12 [Compound 5a]	> 50	8.7	9.4	dose dependent inhibition	significant increase
COc1ccc2c(c1)/C(=N/NC(=O)c1oc3ccccc3c1C)C(=O)N2 [Compound 5d]	> 50	6.5	9.8	significant inhibition	significant increase
CCCN1C(=O)/C(=N\NC(=O)c2oc3ccccc3c2C)c2ccccc21 [Compound 7b]	> 50	–	–	–	–
